# Test results reported in ChEMBL document CHEMBL1201862, “PubChem BioAssay data set” (2004).
#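 All cell lines were grown in 96-well plates and treated with compound for 48 hours. At the GI50, growth is halved.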 Active and inactive are the calls of the source. Cut-off read from the data, not from the text of the source: active = GI50 up to about 1.1 µM and inactive = higher.
# What was measured:
# Assay in all cases: NCI-60 cell line screen, 48 h
# [1] = test system: CAKI-1
# [2] = test system: CCRF-CEM
# [3] = test system: ACHN
# [4] = test system: NCI-H460
# [5] = test system: HOP-18
# [6] = test system: LOX IMVI
# [7] = test system: SW-620
# [8] = test system: TK-10
# [9] = test system: HCT-15
# [10] = test system: DLD-1
# [11] = test system: UACC-257
# [12] = test system: OVCAR-3
# [13] = test system: OVCAR-5
# [14] = test system: DMS-273
# [15] = test system: 786-0
# [16] = test system: HCC 2998
# [17] = test system: UO-31
# [18] = test system: SK-OV-3
# [19] = test system: KM12
# [20] = test system: SK-MEL-28
# [21] = test system: NCI-H23
# [22] = test system: XF498
# [23] = test system: M14
# [24] = test system: SR
# [25] = test system: UACC-62
# [26] = test system: HCT-116
# [27] = test system: HL-60
# [28] = test system: EKVX
# [29] = test system: SNB-19
# [30] = test system: RXF 631
# [31] = test system: U-251
# [32] = test system: OVCAR-8
# [33] = test system: NCI-H522
# [34] = test system: HT-29
# [35] = test system: KM-20L2
# [36] = test system: OVCAR-4
# [37] = test system: SF-539
# [38] = test system: A549
# [39] = test system: HOP-62
# [40] = test system: SN12C
# [41] = test system: SK-MEL-5
# [42] = test system: A498
# [43] = test system: SF-268
# [44] = test system: SNB-75
# [45] = test system: LXFL 529
# [46] = test system: HOP-92
# [47] = test system: SNB-78
# [48] = test system: DMS-114
# [49] = test system: SF-295
# [50] = test system: IGROV-1
# [51] = test system: RPMI-8226
# [52] = test system: MOLT-4
# [53] = test system: COLO 205
# [54] = test system: K562
# [55] = test system: NCI-H226
# [56] = test system: RXF 393
# [57] = test system: SK-MEL-2
# [58] = test system: Malme-3M
structure (smiles),measurement,setting,value
NC(=O)C12CC3CC(CC(Br)(C3)C1)C2,GI50,[1],> 100 µM (inactive)
same,GI50,[2],> 100 µM (inactive)
same,GI50,[3],> 100 µM (inactive)
same,GI50,[4],> 100 µM (inactive)
same,GI50,[5],> 100 µM (inactive)
same,GI50,[6],> 100 µM (inactive)
same,GI50,[7],> 100 µM (inactive)
same,GI50,[8],> 100 µM (inactive)
same,GI50,[9],> 100 µM
same,GI50,[10],> 100 µM (inactive)
same,GI50,[11],> 100 µM (inactive)
same,GI50,[12],> 100 µM (inactive)
same,GI50,[13],> 100 µM (inactive)
same,GI50,[14],> 100 µM (inactive)
same,GI50,[15],> 100 µM (inactive)
same,GI50,[16],> 100 µM (inactive)
same,GI50,[17],> 100 µM (inactive)
same,GI50,[18],> 100 µM (inactive)
same,GI50,[19],> 100 µM (inactive)
same,GI50,[20],> 100 µM (inactive)
same,GI50,[21],> 100 µM (inactive)
same,GI50,[22],> 100 µM (inactive)
same,GI50,[23],> 100 µM (inactive)
same,GI50,[24],> 100 µM (inactive)
same,GI50,[25],> 100 µM (inactive)
same,GI50,[26],> 100 µM (inactive)
same,GI50,[27],> 100 µM (inactive)
same,GI50,[28],> 100 µM (inactive)
same,GI50,[29],> 100 µM (inactive)
same,GI50,[30],> 100 µM (inactive)
same,GI50,[31],> 100 µM (inactive)
same,GI50,[32],> 100 µM (inactive)
same,GI50,[33],> 100 µM (inactive)
same,GI50,[34],> 100 µM (inactive)
same,GI50,[35],> 100 µM (inactive)
same,GI50,[36],> 100 µM (inactive)
same,GI50,[37],> 100 µM (inactive)
same,GI50,[38],> 100 µM (inactive)
same,GI50,[39],> 100 µM (inactive)
same,GI50,[40],> 100 µM (inactive)
same,GI50,[41],> 100 µM (inactive)
same,GI50,[42],> 100 µM (inactive)
same,GI50,[43],> 100 µM (inactive)
same,GI50,[44],76.7 µM (inactive)
same,GI50,[45],> 100 µM (inactive)
same,GI50,[46],> 100 µM (inactive)
same,GI50,[47],> 100 µM (inactive)
same,GI50,[48],> 100 µM (inactive)
same,GI50,[49],> 100 µM (inactive)
same,GI50,[50],> 100 µM (inactive)
same,GI50,[51],> 100 µM (inactive)
same,GI50,[52],> 100 µM (inactive)
CC1=NN(C(=O)CC(=O)Nc2ccccc2)C(=O)C1/N=N/c1ccc(S(N)(=O)=O)cc1 (stereo not given),GI50,[1],50.8 µM (inactive)
same,GI50,[2],46 µM (inactive)
same,GI50,[3],> 100 µM (inactive)
same,GI50,[53],> 100 µM (inactive)
same,GI50,[4],92.5 µM (inactive)
same,GI50,[5],> 100 µM (inactive)
same,GI50,[6],75.5 µM (inactive)
same,GI50,[7],59.4 µM (inactive)
same,GI50,[8],> 100 µM (inactive)
same,GI50,[9],> 100 µM
same,GI50,[10],95.1 µM (inactive)
same,GI50,[11],> 100 µM (inactive)
same,GI50,[12],66.2 µM (inactive)
same,GI50,[13],> 100 µM (inactive)
same,GI50,[14],63.5 µM (inactive)
same,GI50,[54],35.2 µM (inactive)
same,GI50,[55],39.1 µM (inactive)
same,GI50,[15],66.5 µM (inactive)
same,GI50,[16],49.9 µM (inactive)
same,GI50,[17],57.8 µM (inactive)
same,GI50,[56],70.8 µM (inactive)
same,GI50,[18],> 100 µM (inactive)
same,GI50,[19],> 100 µM (inactive)
same,GI50,[20],61.4 µM (inactive)
same,GI50,[21],78 µM (inactive)
same,GI50,[22],56.8 µM (inactive)
same,GI50,[23],80.2 µM (inactive)
same,GI50,[24],56.9 µM (inactive)
same,GI50,[25],32.8 µM (inactive)
same,GI50,[26],48 µM (inactive)
same,GI50,[27],18 µM (inactive)
same,GI50,[28],> 100 µM (inactive)
same,GI50,[29],71.6 µM (inactive)
same,GI50,[30],91.6 µM (inactive)
same,GI50,[31],56.4 µM (inactive)
same,GI50,[32],61.5 µM (inactive)
same,GI50,[33],39 µM (inactive)
same,GI50,[34],> 100 µM (inactive)
same,GI50,[35],> 100 µM (inactive)
same,GI50,[36],60.4 µM (inactive)
same,GI50,[37],99.8 µM (inactive)
same,GI50,[38],> 100 µM (inactive)
same,GI50,[39],88.5 µM (inactive)
same,GI50,[40],41.9 µM (inactive)
same,GI50,[41],36.4 µM (inactive)
same,GI50,[42],> 100 µM (inactive)
same,GI50,[43],80.9 µM (inactive)
same,GI50,[44],60.8 µM (inactive)
same,GI50,[57],> 100 µM (inactive)
same,GI50,[45],81.7 µM (inactive)
same,GI50,[46],> 100 µM (inactive)
same,GI50,[47],88.9 µM (inactive)
same,GI50,[48],63.8 µM (inactive)
same,GI50,[49],> 100 µM (inactive)
same,GI50,[50],34.7 µM (inactive)
same,GI50,[51],84.5 µM (inactive)
same,GI50,[58],> 100 µM (inactive)
same,GI50,[52],37.5 µM (inactive)
